# The supplement of paper PMC10307832
# Columns and labels:
# Test in all cases: relative viability (nuclei count vs DMSO), 5 days (fraction); higher = more cells survive
# AZ3146 + Lapatinib = compound: CN1CCC(CC1)OC2=CC(=C(C=C2)NC3=NC=C4C(=N3)N(C(=O)N4C)C5CCCC5)OC [AZ3146] + CS(=O)(=O)CCNCc1ccc(-c2ccc3ncnc(Nc4ccc(OCc5cccc(F)c5)c(Cl)c4)c3c2)o1 [Lapatinib] (partner 2 µM)
# In short: (§1)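 One day after seeding in 1536-well plates, lung cancer cell lines were dosed by pin tool. Dosing was either single-drug or a fixed anchor-drug dose plus five library-drug doses (not always all listed) in √10 steps. After 5 days, nuclei were stained in one fix-and-stain step and counted on 4× images, and relative viability is the nuclei count of treated wells over that of vehicle wells, given as the median of duplicate plates.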
# GSK-J4 + Decitabine = compound: CCOC(=O)CCNc1cc(N2CCc3ccccc3CC2)nc(-c2ccccn2)n1 [GSK-J4] + Nc1ncn([C@H]2C[C@H](O)[C@@H](CO)O2)c(=O)n1 [Decitabine] (partner 2 µM)
# In short: as §1
# AZ3146 + Alpelisib = compound: CN1CCC(CC1)OC2=CC(=C(C=C2)NC3=NC=C4C(=N3)N(C(=O)N4C)C5CCCC5)OC [AZ3146] + Cc1nc(NC(=O)N2CCC[C@H]2C(N)=O)sc1-c1ccnc(C(C)(C)C(F)(F)F)c1 [Alpelisib] (partner 2 µM)
# In short: as §1
# GSK-J4 + Vorinostat = compound: CCOC(=O)CCNc1cc(N2CCc3ccccc3CC2)nc(-c2ccccn2)n1 [GSK-J4] + O=C(CCCCCCC(=O)Nc1ccccc1)NO [Vorinostat] (partner 1 µM)
# In short: as §1
Cell Line,relative viability (AZ3146 + Lapatinib; first compound 0.08 µM),relative viability (AZ3146 + Lapatinib; first compound 0.253 µM),relative viability (AZ3146 + Lapatinib; first compound 0.8 µM),relative viability (AZ3146 + Lapatinib; first compound 2.53 µM),relative viability (AZ3146 + Lapatinib; first compound 8 µM),relative viability (GSK-J4 + Decitabine; first compound 0.5 µM),relative viability (GSK-J4 + Decitabine; first compound 1.581 µM),relative viability (GSK-J4 + Decitabine; first compound 5 µM),relative viability (GSK-J4 + Decitabine; first compound 15.81 µM),relative viability (GSK-J4 + Decitabine; first compound 50 µM),relative viability (AZ3146 + Alpelisib; first compound 0.08 µM),relative viability (AZ3146 + Alpelisib; first compound 0.253 µM),relative viability (AZ3146 + Alpelisib; first compound 0.8 µM),relative viability (AZ3146 + Alpelisib; first compound 2.53 µM),relative viability (AZ3146 + Alpelisib; first compound 8 µM),relative viability (GSK-J4 + Vorinostat; first compound 0.5 µM),relative viability (GSK-J4 + Vorinostat; first compound 1.581 µM),relative viability (GSK-J4 + Vorinostat; first compound 5 µM),relative viability (GSK-J4 + Vorinostat; first compound 15.81 µM),relative viability (GSK-J4 + Vorinostat; first compound 50 µM)
LOU-NH91,0.969,0.739,0.692,0.768,0.777,0.789,0.798,0.703,0.774,0.805,0.662,0.663,0.681,0.711,0.672,1.02,0.868,0.668,0.841,0.902
LU99A,0.864,1.15,1.06,0.954,0.995,0.791,0.725,–,0.846,0.554,0.494,0.564,0.515,0.606,0.438,0.47,0.344,–,0.476,0.319
LXF-289,0.846,0.924,0.889,0.907,0.908,0.388,0.376,0.403,0.394,0.406,1.02,1,0.96,1.06,0.946,0.821,0.631,0.874,0.692,0.653
NCI-H23,1.11,1.22,1.14,1.31,0.915,0.261,0.271,0.303,0.279,0.282,0.591,0.668,0.676,0.744,0.738,0.596,0.411,0.583,0.473,0.506
NCI-H322M,0.72,0.593,0.609,0.608,0.584,0.687,0.687,0.81,0.379,0.671,0.759,0.83,0.699,0.807,0.785,0.877,0.964,1.11,0.84,0.928
NCI-H358,0.595,0.471,0.377,0.384,0.435,0.206,–,0.216,0.177,0.159,0.897,0.741,0.783,0.889,0.78,0.662,–,0.671,0.602,0.455
NCI-H460,0.877,1.11,0.937,0.817,0.656,0.444,–,0.411,0.429,0.47,0.375,0.466,0.478,0.573,0.254,0.663,–,0.623,0.67,0.656
NCI-H520,0.797,0.84,0.838,0.965,0.576,0.51,0.336,0.541,0.502,0.446,0.689,0.943,0.791,0.834,1.04,0.644,0.527,0.69,0.659,0.648
NCI-H596,1.05,0.94,1.21,1.08,0.979,0.923,1.03,0.906,0.773,1.02,0.482,0.484,0.489,0.487,0.428,0.743,0.475,0.654,0.503,0.365
NCI-H647,1.05,1.12,1.12,1.25,0.792,0.376,0.393,0.374,0.337,0.496,1.05,1.21,1.27,1.28,0.534,0.59,0.719,0.553,0.646,0.43
NCI-H650,0.804,0.844,0.667,1.02,0.973,0.289,0.326,–,0.283,0.334,0.813,1.08,0.915,1.14,1.25,0.358,0.342,–,0.319,0.266
NCI-H661,0.661,0.514,0.559,0.537,0.472,0.548,0.5,0.485,0.497,0.441,0.729,0.549,0.565,0.689,1.03,0.833,0.687,0.821,0.728,0.608
NCI-H727,0.745,0.557,0.79,1.29,0.869,0.856,0.753,0.904,0.87,0.611,0.506,0.457,0.48,0.612,0.333,1.13,0.991,1.45,1.03,0.758
NCI-H838,1.07,0.939,0.935,0.858,0.32,0.459,0.363,0.407,0.406,0.316,0.95,1.06,0.883,0.985,0.858,0.721,0.717,0.401,0.695,0.57
NCI-H1355,0.854,0.951,0.986,1.03,0.953,0.354,0.364,0.342,0.325,0.335,0.836,0.849,0.897,0.723,0.809,0.654,0.588,0.51,0.478,0.469
NCI-H1395,0.853,0.915,0.997,1.19,0.999,0.781,0.718,0.632,0.751,0.661,1.08,1.18,0.998,0.994,1.26,1.11,0.813,0.625,0.594,0.62

Cell Line,relative viability (AZ3146 + Lapatinib; first compound 0.08 µM),relative viability (AZ3146 + Lapatinib; first compound 0.253 µM),relative viability (AZ3146 + Lapatinib; first compound 0.8 µM),relative viability (AZ3146 + Lapatinib; first compound 2.53 µM),relative viability (AZ3146 + Lapatinib; first compound 8 µM),relative viability (GSK-J4 + Decitabine; first compound 0.5 µM),relative viability (GSK-J4 + Decitabine; first compound 1.581 µM),relative viability (GSK-J4 + Decitabine; first compound 5 µM),relative viability (GSK-J4 + Decitabine; first compound 15.81 µM),relative viability (GSK-J4 + Decitabine; first compound 50 µM),relative viability (AZ3146 + Alpelisib; first compound 0.08 µM),relative viability (AZ3146 + Alpelisib; first compound 0.253 µM),relative viability (AZ3146 + Alpelisib; first compound 0.8 µM),relative viability (AZ3146 + Alpelisib; first compound 2.53 µM),relative viability (AZ3146 + Alpelisib; first compound 8 µM),relative viability (GSK-J4 + Vorinostat; first compound 0.5 µM),relative viability (GSK-J4 + Vorinostat; first compound 1.581 µM),relative viability (GSK-J4 + Vorinostat; first compound 5 µM),relative viability (GSK-J4 + Vorinostat; first compound 15.81 µM),relative viability (GSK-J4 + Vorinostat; first compound 50 µM)
NCI-H1437,0.708,0.739,0.829,0.899,0.519,0.574,0.363,0.564,0.552,0.358,0.954,1.05,0.876,0.96,0.911,0.827,0.608,0.715,0.706,0.305
NCI-H1651,0.757,0.854,0.815,0.921,0.636,0.599,0.622,0.599,0.537,0.508,0.879,1.02,0.936,1.1,0.958,0.607,0.537,0.558,0.448,0.464
NCI-H1666,0.681,0.669,0.694,0.891,0.536,0.747,0.726,0.84,0.666,0.674,0.739,0.848,0.962,0.956,0.841,0.956,0.931,0.97,1.01,0.737
NCI-H1734,1.05,1.17,1.07,1.1,0.942,0.542,0.447,0.507,0.492,0.376,0.731,0.62,0.731,0.649,0.696,0.749,0.788,0.609,0.645,0.5
NCI-H1755,1.03,1.05,0.973,1.05,1.05,0.727,0.569,0.641,0.61,0.709,0.919,0.989,0.848,0.953,0.917,0.675,0.638,0.694,0.577,0.536
NCI-H1793,0.649,0.853,0.492,0.805,0.497,0.394,0.371,0.305,0.204,0.196,0.578,0.743,0.758,0.779,0.624,0.942,0.586,0.663,0.358,0.284
NCI-H1915,1.05,0.864,1.04,0.933,1.02,0.253,0.235,–,0.239,0.247,0.978,1,1,1.06,1.04,0.452,0.481,–,0.417,0.483
NCI-H1944,–,0.801,0.819,0.837,0.987,0.411,0.381,–,0.367,0.412,–,0.845,0.991,0.825,0.861,0.566,0.477,–,0.419,0.427
NCI-H1975,0.922,0.95,0.928,0.933,0.783,0.401,0.352,0.323,0.376,0.394,0.658,0.627,0.671,0.616,0.301,0.662,0.689,0.637,0.632,0.71
NCI-H1993,0.896,0.788,0.724,0.853,0.779,0.643,0.554,0.388,0.6,0.507,0.785,0.713,0.61,0.666,0.662,1.15,0.708,0.804,0.601,0.409
NCI-H2009,0.817,0.975,1.06,1.09,0.409,0.348,0.358,0.313,0.319,0.297,1.1,1.17,1.19,1.24,1.05,0.731,0.622,0.56,0.682,0.259
NCI-H2023,0.688,0.922,0.735,0.941,0.179,0.212,0.195,0.209,0.174,0.195,0.593,0.499,0.642,0.608,0.463,0.59,0.497,0.545,0.514,0.283
NCI-H2085,0.731,0.752,0.7,0.823,0.699,0.511,0.501,0.512,0.548,0.491,0.993,0.947,0.94,0.99,0.808,0.767,0.731,0.697,0.634,0.728
NCI-H2087,0.899,1.08,1.08,0.906,1.14,0.312,0.218,0.353,0.224,0.249,1.03,1.04,1.19,1.11,0.953,0.638,0.68,0.544,0.842,0.811
NCI-H2126,0.691,0.745,0.707,0.818,0.729,0.625,0.573,0.59,0.53,0.539,0.683,0.705,0.757,0.724,0.731,0.762,0.659,0.872,0.572,0.567
NCI-H2170,0.265,0.283,0.252,0.273,0.277,0.453,0.422,0.459,0.463,0.464,0.72,0.767,0.82,0.794,0.733,0.813,0.677,0.803,0.638,0.761
